In PMC8119466, “A screen of FDA-approved drugs identifies inhibitors of protein tyrosine phosphatase 4A3 (PTP4A3 or PRL-3)” (Scientific Reports, 2021):
Structures can show the parent of a compound that is named as a salt. Where two headings read alike, the source gives them in different places.

Assays:
Type in all cases: biochemical
[1] = molecular target: T1, recombinant PRL-1 (Homo sapiens, UniProt Q93096); assay: In vitro phosphatase assay (DiFMUP hydrolysis), PRL-1
T1 construct: 6xHis (N, cleaved yes); made in house; host or cells: E. coli One Shot BL21 Star
T1 sequence (Q93096 1-173): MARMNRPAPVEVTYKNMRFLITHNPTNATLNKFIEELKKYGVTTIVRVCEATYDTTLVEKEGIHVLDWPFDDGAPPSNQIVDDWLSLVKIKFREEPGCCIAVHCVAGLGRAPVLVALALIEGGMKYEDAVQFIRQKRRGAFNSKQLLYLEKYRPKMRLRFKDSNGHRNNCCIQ

[2] = molecular target: T2, recombinant PRL-2 (Homo sapiens, UniProt Q12974); assay: In vitro phosphatase assay (DiFMUP hydrolysis), PRL-2;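 note: PRL-2 activity read as DiFMUP hydrolysis after 20 min at room temperature with drug, enzyme first pre-reduced at 4 °C for 20 min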
T2 construct: 6xHis (N, cleaved yes); made in house; host or cells: E. coli One Shot BL21 Star
T2 sequence (Q12974 1-167): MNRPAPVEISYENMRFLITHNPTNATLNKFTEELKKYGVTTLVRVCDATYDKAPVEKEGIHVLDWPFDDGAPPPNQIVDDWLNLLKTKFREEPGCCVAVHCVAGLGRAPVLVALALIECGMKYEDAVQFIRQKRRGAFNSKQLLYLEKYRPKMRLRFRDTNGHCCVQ

[3] = molecular target: T3, recombinant PRL-3 (Homo sapiens, UniProt O75365); assay: In vitro phosphatase assay (DiFMUP hydrolysis), PRL-3
T3 construct: 6xHis (N, cleaved yes); made in house; host or cells: E. coli One Shot BL21 Star

[4] = FDA-approved drug screen, compared to DMSO

T3 sequence (O75365 whole entry): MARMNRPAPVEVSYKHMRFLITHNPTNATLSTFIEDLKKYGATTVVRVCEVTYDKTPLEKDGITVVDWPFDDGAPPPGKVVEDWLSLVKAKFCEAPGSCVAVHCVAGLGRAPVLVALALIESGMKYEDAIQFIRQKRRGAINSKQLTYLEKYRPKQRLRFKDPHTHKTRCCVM

Row | SMILES | % Phosphatase Activity (compared to DMSO) PRL-1 [1, 4] [%] | % Phosphatase Activity (compared to DMSO) PRL-2 [2, 4] [%] | % Phosphatase Activity (compared to DMSO) PRL-3 [3, 4] [%] | further results
1 | CC(=O)O[C@@]12CO[C@@H]1C[C@H](O)[C@@]1(C)C(=O)[C@H](O)C3=C(C)[C@@H](OC(=O)[C@H](O)[C@@H](NC(=O)OC(C)(C)C)c4ccccc4)C[C@@](O)([C@@H](OC(=O)c4ccccc4)[C@H]21)C3(C)C [Docetaxel Trihydrate] | 93 | 87 | 90 | 
2 | CC(=O)O[C@@]12CO[C@@H]1C[C@H](O)[C@@]1(C)C(=O)[C@H](O)C3=C(C)[C@@H](OC(=O)[C@H](O)[C@@H](NC(=O)OC(C)(C)C)c4ccccc4)C[C@@](O)([C@@H](OC(=O)c4ccccc4)[C@H]21)C3(C)C [Docetaxel] | 87 | 88 | 65 | 
3 | CCCCC(CC)COC(=O)CC(C(=O)OCC(CC)CCCC)S(=O)(=O)O (stereo not drawn) [Docusate Sodium, reference compound] |  |  |  | % Phosphatase Activity (compared to DMSO) PRL-1 [1]: 64%; IC50 ([1]; 2.5 µM protein, DiFMUP at KM, read-out: Calculated IC50, PRL-1 phosphatase activity): 94 ± 26 µM; % Phosphatase Activity (compared to DMSO) PRL-2 [2]: 63%; IC50 ([2]; 2.5 µM protein, DiFMUP at KM, read-out: Calculated IC50, PRL-2 phosphatase activity): 140 ± 44 µM; % Phosphatase Activity (compared to DMSO) PRL-3 [3]: 34%; IC50 ([3]; 2.5 µM protein, DiFMUP at KM, read-out: Calculated IC50, PRL-3 phosphatase activity): 43 ± 5 µM
4 | C[C@@H]1CCO[C@H]2Cn3cc(C(=O)NCc4ccc(F)cc4F)c(=O)c(O)c3C(=O)N12 [Dolutegravir (GSK1349572)] | 105 | 101 | 99 | 
5 | CCCCCCCCCCCC[N+](C)(C)CCOc1ccccc1 [Domiphen Bromide] | 106 | 104 | 84 | 
6 | O=c1[nH]c2ccccc2n1CCCN1CCC(n2c(=O)[nH]c3cc(Cl)ccc32)CC1 [Domperidone] | 118 | 112 | 79 | 
7 | NCCc1ccc(O)c(O)c1 [Dopamine HCl] |  |  |  | % Phosphatase Activity (compared to DMSO) PRL-1 [1]: 125%; % Phosphatase Activity (compared to DMSO) PRL-2 [2]: 119%; % Phosphatase Activity (compared to DMSO) PRL-3 [3]: 82%
8 | C[C@@H](O)[C@H]1C(=O)N2C(C(=O)O)=C(S[C@@H]3CN[C@H](CNS(N)(=O)=O)C3)[C@H](C)[C@H]12.O [Doripenem Hydrate] | 107 | 107 | 69 | 
9 | CC(O)C(=O)O.CN1CCN(c2ccc3nc(-c4c(N)c5c(F)cccc5[nH]c4=O)[nH]c3c2)CC1 [Dovitinib (TKI258) Lactate] | 86 | 70 | 85 | 
10 | CC(O)C(=O)O.CC(O)C(=O)O.CN1CCN(c2ccc3nc(-c4c(N)c5c(F)cccc5[nH]c4=O)[nH]c3c2)CC1 [Dovitinib (TKI-258) Dilactic Acid] | 92 | 80 | 91 | 
11 | CN1CCN(c2ccc3nc(-c4c(N)c5c(F)cccc5[nH]c4=O)[nH]c3c2)CC1 [Dovitinib (TKI-258, CHIR-258)] | 87 | 96 | 74 | 
12 | CCN1CC(CCN2CCOCC2)C(c2ccccc2)(c2ccccc2)C1=O.Cl (stereo not drawn) [Doxapram HCl] | 113 | 98 | 92 | 
13 | COc1cc2nc(N3CCN(C(=O)C4COc5ccccc5O4)CC3)nc(N)c2cc1OC (stereo not drawn) [Doxazosin Mesylate] | 441 | 528 | 305 | 
14 | C=C1/C(=C\C=C2/CCC[C@]3(C)[C@@H]([C@H](C)/C=C/[C@H](C)C(C)C)CC[C@@H]23)C[C@@H](O)C[C@@H]1O [Doxercalciferol] | 105 | 99 | 71 | 
15 | C[C@H]1O[C@@H](n2cc(F)c(=O)[nH]c2=O)[C@H](O)[C@@H]1O [Doxifluridine] | 91 | 103 | 98 | 
16 | Cn1c(=O)c2c(ncn2CC2OCCO2)n(C)c1=O [Doxofylline] | 103 | 109 | 79 | 
17 | COc1cccc2c1C(=O)c1c(O)c3c(c(O)c1C2=O)C[C@@](O)(C(=O)CO)C[C@@H]3O[C@H]1C[C@H](N)[C@H](O)[C@H](C)O1 [Doxorubicin (Adriamycin)] | 75 | 74 | 73 | 
18 | C[C@H]1c2cccc(O)c2C(=O)C2=C(O)[C@]3(O)C(=O)C(C(N)=O)=C(O)[C@@H](N(C)C)[C@@H]3[C@@H](O)[C@@H]21 [Doxycycline HCl] | 83 | 83 | 73 | 
19 | CN(C)CCOC(C)(c1ccccc1)c1ccccn1 (stereo not drawn) [Doxylamine Succinate] | 91 | 83 | 71 | 
20 | CCCCc1oc2ccc(NS(C)(=O)=O)cc2c1C(=O)c1ccc(OCCCN(CCCC)CCCC)cc1 [Dronedarone HCl] | 116 | 131 | 96 | 
21 | O=C(CCCN1CC=C(n2c(=O)[nH]c3ccccc32)CC1)c1ccc(F)cc1 [Droperidol] | 85 | 106 | 71 | 
22 | OCC(O)CN1CCN(c2ccccc2)CC1 (stereo not drawn) [Dropropizine] | 91 | 110 | 76 | 
23 | C[C@]12CCC(=O)C=C1[C@@H]1C[C@@H]1[C@H]1[C@@H]3[C@@H]4C[C@@H]4[C@@]4(CCC(=O)O4)[C@@]3(C)CC[C@@H]12 [Drospirenone] | 90 | 89 | 71 | 
24 | CNCC[C@H](Oc1cccc2ccccc12)c1cccs1 [Duloxetine HCl] |  |  |  | % Phosphatase Activity (compared to DMSO) PRL-1 [1]: 97%; % Phosphatase Activity (compared to DMSO) PRL-2 [2]: 107%; % Phosphatase Activity (compared to DMSO) PRL-3 [3]: 89%
25 | C[C@]12C=CC(=O)N[C@@H]1CC[C@@H]1[C@@H]2CC[C@]2(C)[C@@H](C(=O)Nc3cc(C(F)(F)F)ccc3C(F)(F)F)CC[C@@H]12 [Dutasteride] | 94 | 88 | 82 | 
26 | CCCCOc1ccc(C(=O)CCN2CCCCC2)cc1 [Dyclonine HCl] | 91 | 103 | 102 | 
27 | CC(=O)[C@H]1CC[C@H]2[C@@H]3C=CC4=CC(=O)CC[C@@]4(C)[C@@H]3CC[C@]12C [Dydrogesterone] | 91 | 98 | 67 | 
28 | Cn1c(=O)c2c(ncn2CC(O)CO)n(C)c1=O (stereo not drawn) [Dyphylline] | 100 | 103 | 75 | 
29 | CCN(c1cc(-c2ccc(CN3CCOCC3)cc2)cc(C(=O)NCc2c(C)cc(C)[nH]c2=O)c1C)C1CCOCC1 [EPZ-6438] | 85 | 77 | 95 | 
30 | NC(=O)C1CCCc2c1[nH]c1ccc(Cl)cc21 (stereo not drawn) [EX 527 (Selisistat)] | 99 | 106 | 84 | 
